# Experimental data as given in publication PMC12655551, “Design, Synthesis, and Evaluation of Pyrrole-Based Selective MAO-B Inhibitors with Additional AChE Inhibitory and Neuroprotective Properties Identified via Virtual Screening” (Pharmaceuticals, 2025).
# Experiments:
# [1] = test system: isolated rat brain mitochondria; test: t-BuOOH-induced oxidative stress in isolated rat brain mitochondria; type: cell-based; settings: 75 μM, vs non-treated mitochondria
# Experimental: (§1) Two types of buffers were used for the isolation of the rat brain synaptosomes and mitochondria. Buffer A was 5 mM HEPES and 0.32 M Sucrose; Buffer B was 290 mM NaCl, 0.95 mM MgCl2 × 2H2O, 10 mM KCl, 2.4 mM CaCl2 × 2H2O, 2.1 mM NaH2PO4, 44 mM HEPES, 13 mM D-Glucose. For the gradient centrifugation, Percoll reagent was used. A stock solution of 90% Percoll was used to prepare 16%, 10% and 7.5% solutions. All the solutions were used as described below. Immediately after harvesting, synaptosomes, microsomes, and mitochondria were incubated with the exam compounds for 1 h. For assessing the possible neurotoxicity of the most MAOB active compounds, the sub-cellular fractions were incubated with 100 µM of them, and for evaluating their possible neuroprotective and antioxidant activities in different models of neurotoxicity, the sub-cellular fractions were incubated with 50µM of them. The protein measurement of all the sub-cellular fractions was made by the method of Lowry et al., 1951 [57].
# The mitochondria were prepared by multiple differential fractionation using a Percoll gradient.
# The mitochondria were incubated with 75 μM t-BuOOH [57].
# After incubation of the mitochondria, 0.3 mL 0.2% TBA and 0.25 mL sulfuric acid (0.05 M) were added to stop the reaction. The tubes were maintained at 100 °C for 30 min. In the next stage, centrifugation of the tubes was carried out at 3500× g for 10 min. Assessment of the total quantity of MDA formed in each sample was measured in the supernatant at 532 nm.
# After incubation of mitochondria, 0.04% DTNB was mixed with the mitochondrial suspensions in 0.1 M phosphate buffer (pH 7.4). The absorbance of the yellow product was measured at 412 nm.
# AChE = biological target: T1, AChE (Electrophorus electricus, UniProt O42275); test: biochemical; type: biochemical; settings: for inhibition at 200 µM: 200 µM compound; for IC50: means ± SD of three experiments
# T1 construct: purchased Sigma-Aldrich, Hamburg, Germany
# Experimental: (§2) AChE and BChE inhibitory activity of the newly synthesized pyrrole-based compounds was measured using the microplate assay described by Ellman et al. with the modifications added by López et al.. The compounds were tested at concentrations between 0.01 and 200 μM. First, they were dissolved in phosphate buffer (PBS) (8 mM K2HPO4, 2.3 mM NaH2PO4, 0.15 M NaCl, pH 7.5), assisted by the addition of no more than 5% MeOH. Then, they were serially diluted with PBS to provide the concentration range needed. Acetylcholinesterase from Electrophorus electricus and butyrylcholinesterase from equine serum (Sigma-Aldrich, Hamburg, Germany) were used with a substrate solution of 5,5′-dithiobis(2-nitrobenzoic acid) (DTNB) with acetylthiocholine iodide (ATCI) or butyrylthiocholine iodide (BTCI), respectively (0.04 M Na2HPO4, 0.2 mM DTNB, 0.24 mM ATCI or BTCI, pH 7.5). A total of 50 μL of AChE or BChE (0.25 U/mL, in PBS) and 50 μL of the tested compound solution were added to the wells. Incubation of the plates was performed at room temperature for 30 min. Then, 100 μL of substrate solution was added to start the enzymatic reaction. […] Enzyme activity was calculated as an inhibition percentage compared to an assay including buffer instead of an inhibitor.
# [2] = biological target: T2, recombinant human MAO-A (hMAOA) (Homo sapiens, UniProt P21397); test: MAO-A inhibition, fluorometric Amplex UltraRed assay; type: biochemical; settings: for inhibition at 1 µM: 1 µM compound, read-out: Inhibition Activity 1 µM MAO-A; for IC50: means ± SD of three experiments, read-out: MAO-A IC50
# T2 sequence (P21397 1-527): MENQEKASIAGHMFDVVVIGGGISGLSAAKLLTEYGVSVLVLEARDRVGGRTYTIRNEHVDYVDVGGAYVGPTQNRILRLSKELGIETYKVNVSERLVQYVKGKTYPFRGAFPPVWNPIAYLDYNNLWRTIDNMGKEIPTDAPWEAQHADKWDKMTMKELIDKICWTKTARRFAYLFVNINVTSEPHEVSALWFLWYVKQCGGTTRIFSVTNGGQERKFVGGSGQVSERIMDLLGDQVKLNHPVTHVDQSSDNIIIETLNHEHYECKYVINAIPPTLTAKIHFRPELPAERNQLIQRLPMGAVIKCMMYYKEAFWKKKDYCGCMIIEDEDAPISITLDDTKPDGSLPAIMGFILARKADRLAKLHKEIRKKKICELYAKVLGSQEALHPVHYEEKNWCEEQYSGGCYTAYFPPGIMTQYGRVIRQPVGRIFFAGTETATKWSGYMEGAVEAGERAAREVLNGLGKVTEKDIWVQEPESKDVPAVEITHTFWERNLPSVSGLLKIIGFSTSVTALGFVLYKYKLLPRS
# Experimental: (§3) Monoamine oxidase (MAO) activity for both recombinant human MAO-A (hMAOA) and MAO-B (hMAOB) was assessed using a fluorometric assay based on the Amplex® UltraRed reagent. This method, originally reported by Bautista-Aguilera et al. and later adapted with minor changes by Kasabova-Angelova et al., detects hydrogen peroxide or peroxidase activity present in enzymes or biological samples. In this assay, Amplex® Red reacts in a 1:1 molar ratio with hydrogen peroxide in the presence of peroxidase, producing the red-fluorescent compound resorufin. Due to resorufin’s strong extinction coefficient (58,000 ± 5000 cm^−1·M^−1), measurements could be accurately taken using either fluorometric or spectrophotometric methods. […] The control conditions included the use of purified hMAOA or hMAOB in reaction buffer, enzyme solutions with hydrogen peroxide, and buffer alone. All the test compounds were initially prepared at a 1 µM final concentration. These compounds were combined with either hMAOA or hMAOB and loaded into a 96-well plate (with eight replicates per test compound), followed by incubation for 30 min at 37 °C in the dark. Subsequently, a 50 µL detection mix was added to each well. This mix contained Amplex® Red, horseradish peroxidase (HRP), and tyramine substrate, all prepared in a reaction buffer. As this enzymatic reaction proceeded continuously, the fluorescence signal was recorded every 30 min (at 0, 30, 60, 90, 120, and 150 min) to track enzymatic kinetics.
# BChE = biological target: T3, BChE (Equus caballus, UniProt P81908); test: biochemical; settings: for IC50: means ± SD of three experiments, read-out: BChE IC50; for inhibition at 200 µM: read-out: Inhibition Activity 200 µM BChE
# T3 construct: purchased Sigma-Aldrich, Hamburg, Germany; host or cells: equine serum
# Experimental: as §2
# [3] = biological target: T4, recombinant human MAO-B (hMAOB) (Homo sapiens, UniProt P27338); test: biochemical; type: biochemical; settings: for inhibition at 1 µM: 1 µM compound
# T4 sequence (P27338 1-520): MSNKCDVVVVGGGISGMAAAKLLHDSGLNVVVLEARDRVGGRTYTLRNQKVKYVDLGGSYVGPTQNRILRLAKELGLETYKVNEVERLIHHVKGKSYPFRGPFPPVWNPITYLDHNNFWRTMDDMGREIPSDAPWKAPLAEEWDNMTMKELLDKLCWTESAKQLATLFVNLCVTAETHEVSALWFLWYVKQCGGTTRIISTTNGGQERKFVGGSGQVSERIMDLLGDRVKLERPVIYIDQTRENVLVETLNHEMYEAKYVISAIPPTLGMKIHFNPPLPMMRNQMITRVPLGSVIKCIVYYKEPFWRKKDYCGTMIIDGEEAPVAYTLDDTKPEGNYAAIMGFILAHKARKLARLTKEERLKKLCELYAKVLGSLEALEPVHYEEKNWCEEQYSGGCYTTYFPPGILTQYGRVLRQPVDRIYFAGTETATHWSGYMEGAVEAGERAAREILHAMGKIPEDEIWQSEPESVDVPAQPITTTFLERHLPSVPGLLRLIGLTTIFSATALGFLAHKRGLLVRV
# Experimental: as §3
# [4] = test system: isolated rat brain synaptosomes; test: 6-OHDA-induced neurotoxicity in isolated rat brain synaptosomes; type: cell-based; settings: 150 μM, vs non-treated synaptosomes
# Experimental: as §1
# The synaptosomes were prepared from rat brains by multiple sub-cellular fractionation using a Percoll gradient.
# This in vitro model resembles the neurodegenerative processes occurring in PD. Dopamine metabolism and oxidation led to the formation of reactive oxygen species (ROS) and reactive quinones. These processes were catalyzed by the MAOB enzyme. They induced dopamine neurotoxicity and neurodegeneration. The synaptosomes were incubated with 150 μM 6-OHDA for 1 h.
# After the incubation, the synaptosomes were centrifuged three times at 15,000× g for 1 min. MTT-test was performed to determine synaptosomal vitality by the method described by Mungarro-Menchaca et al..
# The level of GSH was determined by measuring the non-protein SH-groups after precipitation of the proteins with trichloroacetic acid (TCA). The presence of thiols in the supernatant was determined using Elmman’s reagent. The resulting yellow color was measured spectrophotometrically (λ = 412 nm).
# [5] = means ± SD of three experiments
# T1 sequence (O42275 24-633): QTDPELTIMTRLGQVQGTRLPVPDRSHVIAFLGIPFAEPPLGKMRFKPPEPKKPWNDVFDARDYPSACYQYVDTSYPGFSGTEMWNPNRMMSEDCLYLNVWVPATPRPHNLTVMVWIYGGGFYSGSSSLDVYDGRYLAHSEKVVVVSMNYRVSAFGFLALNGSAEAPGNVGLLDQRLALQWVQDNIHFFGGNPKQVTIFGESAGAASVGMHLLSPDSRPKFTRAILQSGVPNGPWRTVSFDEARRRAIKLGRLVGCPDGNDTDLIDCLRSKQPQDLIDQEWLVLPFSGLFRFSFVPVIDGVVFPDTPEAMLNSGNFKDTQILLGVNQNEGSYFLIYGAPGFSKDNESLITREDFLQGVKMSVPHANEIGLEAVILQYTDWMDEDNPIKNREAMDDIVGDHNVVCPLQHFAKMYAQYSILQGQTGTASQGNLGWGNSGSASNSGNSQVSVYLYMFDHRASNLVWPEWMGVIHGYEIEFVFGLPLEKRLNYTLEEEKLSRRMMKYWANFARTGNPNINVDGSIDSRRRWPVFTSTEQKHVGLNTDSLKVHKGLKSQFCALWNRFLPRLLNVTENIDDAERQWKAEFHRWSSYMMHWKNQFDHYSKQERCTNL
# T3 sequence (P81908 whole entry): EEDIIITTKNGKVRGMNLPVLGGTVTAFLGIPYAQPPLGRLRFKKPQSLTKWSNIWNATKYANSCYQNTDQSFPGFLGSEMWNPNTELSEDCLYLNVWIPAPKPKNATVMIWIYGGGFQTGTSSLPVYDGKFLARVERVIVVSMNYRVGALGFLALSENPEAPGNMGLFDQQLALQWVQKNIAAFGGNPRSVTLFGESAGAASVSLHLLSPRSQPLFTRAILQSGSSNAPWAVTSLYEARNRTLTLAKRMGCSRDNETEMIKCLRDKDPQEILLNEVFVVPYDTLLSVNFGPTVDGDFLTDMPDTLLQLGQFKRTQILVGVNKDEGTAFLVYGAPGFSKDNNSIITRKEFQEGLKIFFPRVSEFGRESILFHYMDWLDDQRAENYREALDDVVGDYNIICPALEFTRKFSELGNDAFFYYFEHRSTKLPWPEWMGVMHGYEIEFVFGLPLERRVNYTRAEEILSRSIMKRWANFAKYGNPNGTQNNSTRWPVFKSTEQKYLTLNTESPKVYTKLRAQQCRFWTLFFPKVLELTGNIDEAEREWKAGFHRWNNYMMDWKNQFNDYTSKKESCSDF
structure (smiles),measurement,setting,value
"CC(C)(C)OO [t-BuOOH, tert-butyl hydroperoxide, reference compound]",decrease of GSH level by the toxic agent alone,[1],50%
same,increase of MDA production by the toxic agent alone,[1],150%
"Cc1ccc(C)n1-c1ccc(C(=O)NCC(=O)O)cc1 [EM-DC-24, [4-(2,5-dimethyl-1H-pyrrol-1-yl)benzamido]acetic acid]",inhibition at 200 µM,AChE,24.1 ± 4.1%
same,IC50,AChE,> 200 µM
same,inhibition at 1 µM,[2],80 ± 7.1%
same,IC50,[2],0.58 ± 0.1 µM
same,IC50,BChE,> 200 µM
same,inhibition at 200 µM,BChE,0%
same,inhibition at 1 µM,[3],80 ± 7.1%
same,IC50,[3]; [5],0.59 ± 0.1 µM
"Cc1ccc(C)n1C1CCN(Cc2ccccc2)CC1 [EM-DC-25, 1-benzyl-4-(2,5-dimethyl-1H-pyrrol-1-yl)piperidine]",inhibition at 200 µM,AChE,74.8 ± 1.47%
same,IC50,AChE,87.2 ± 5.7 µM
same,inhibition at 1 µM,[2],60 ± 7.1%
same,IC50,[2],0.33 ± 0.1 µM
same,IC50,BChE,104 ± 2.5 µM
same,inhibition at 200 µM,BChE,69.8 ± 0.81%
same,inhibition at 1 µM,[3],98 ± 7.1%
same,IC50,[3]; [5],> 100 µM
"Cc1ccc(C)n1-c1ccc(O)c(C(=O)O)c1 [EM-DC-18, 5-(2,5-dimethyl-1H-pyrrol-1-yl)-2-hydroxybenzoic acid]",inhibition at 200 µM,AChE,16 ± 1.4%
same,IC50,AChE,> 200 µM
same,inhibition at 1 µM,[2],98 ± 6.5%
same,IC50,[2],> 100 µM
same,IC50,BChE,> 200 µM
same,inhibition at 200 µM,BChE,0%
same,inhibition at 1 µM,[3],98 ± 7.1%
same,IC50,[3]; [5],> 100 µM
"Cc1ccc(C)n1-c1ccncc1 [EM-DC-12, 4-(2,5-dimethyl-1H-pyrrol-1-yl)pyridine]",inhibition at 200 µM,AChE,65.7 ± 3.25%
same,IC50,AChE,103 ± 5.85 µM
same,inhibition at 1 µM,[2],70 ± 6.9%
same,IC50,[2],0.49 ± 0.1 µM
same,IC50,BChE,72.8 ± 2.53 µM
same,inhibition at 200 µM,BChE,73.2 ± 1.8%
same,inhibition at 1 µM,[3],70 ± 7.1%
same,IC50,[3]; [5],0.51 ± 0.1 µM
same,MAO-B IC50,[3]; [5],submicromolar range
"NCCc1cc(O)c(O)cc1O [Compound 6-OHDA, 6-hydroxydopamine, reference compound]",decrease of GSH level by the toxic agent alone,[4],50%
same,decrease of synaptosomal viability by the toxic agent alone,[4],50%
"Cc1ccc(C)n1CCN1CCOCC1 [EM-DC-16, 4-[2-(2,5-dimethyl-1H-pyrrol-1-yl)ethyl]morpholine]",inhibition at 200 µM,AChE,85.3 ± 2.43%
same,IC50,AChE,11.8 ± 1.1 µM
same,inhibition at 1 µM,[2],80 ± 7.3%
same,IC50,[2],0.46 ± 0.1 µM
same,IC50,BChE,> 200 µM
same,inhibition at 200 µM,BChE,48.8 ± 1.5%
same,inhibition at 1 µM,[3],80 ± 7.1%
same,IC50,[3]; [5],0.47 ± 0.1 µM
"Cc1ccc(C)n1C(CS)C(=O)O (centres unmarked) [EM-DC-15, 2-(2,5-dimethyl-1H-pyrrol-1-yl)-3-sulfanylpropanoic acid]",inhibition at 200 µM,AChE,63.9 ± 1.29%
same,IC50,AChE,131 ± 1.85 µM
same,inhibition at 1 µM,[2],70 ± 7.2%
same,IC50,[2],0.55 ± 0.1 µM
same,IC50,BChE,> 200 µM
same,inhibition at 200 µM,BChE,19.1 ± 2.47%
same,inhibition at 1 µM,[3],70 ± 7.1%
same,IC50,[3]; [5],0.53 ± 0.1 µM
"Cc1ccc(C)n1-c1ccc(O)cc1 [EM-DC-1, 4-(2,5-dimethyl-1H-pyrrol-1-yl)phenol]",inhibition at 200 µM,AChE,7.52 ± 2.07%
same,IC50,AChE,> 200 µM
same,inhibition at 1 µM,[2],55 ± 7.1%
same,IC50,[2],0.32 ± 0.1 µM
same,IC50,BChE,173 ± 7.3 µM
same,inhibition at 200 µM,BChE,53.9 ± 2.14%
same,inhibition at 1 µM,[3],99 ± 7.1%
same,IC50,[3]; [5],> 100 µM
"Cc1ccc(C)n1C(C)(C)CO [EM-DC-14, 2-(2,5-dimethyl-1H-pyrrol-1-yl)-2-methylpropan-1-ol]",inhibition at 200 µM,AChE,33.2 ± 2.03%
same,IC50,AChE,> 200 µM
same,inhibition at 1 µM,[2],75 ± 7.1%
same,IC50,[2],0.44 ± 0.1 µM
same,IC50,BChE,> 200 µM
same,inhibition at 200 µM,BChE,0%
same,inhibition at 1 µM,[3],75 ± 7.1%
same,IC50,[3]; [5],0.46 ± 0.1 µM
"Cc1ccc(C)n1-c1ccccc1Br [EM-DC-3, 1-(2-bromophenyl)-2,5-dimethyl-1H-pyrrole]",inhibition at 200 µM,AChE,8.32 ± 2.64%
same,IC50,AChE,> 200 µM
same,inhibition at 1 µM,[2],70 ± 7.2%
same,IC50,[2],0.52 ± 0.1 µM
same,IC50,BChE,> 200 µM
same,inhibition at 200 µM,BChE,0.04 ± 9.01%
same,inhibition at 1 µM,[3],75 ± 7.1%
same,IC50,[3]; [5],0.56 ± 0.1 µM
